Patent publication US6869929B2, “Use of transcription factors for treating inflammation and other diseases” (Beth Israel Deaconess Medical Center, priority 2000, dated 2005)

Experiments:
ESE-1 = ESE-1 mRNA RT-PCR in THP-1 monocytic cells; assay type: cell-based, human; settings: THP-1 cells; within one hour
Experimental: U-87 Mg and U-138 Mg (human glioma), THP-1 (human monocytic), RAW 264.7 (murine monocytic), LB-12 (human osteoblast-like large T antigen transformed bone marrow stromal cells), and human chondrocytes were grown and treated with cytokines as described (Apperley, J., et al. 1990. J Bone Mineral Res. 5:S93; Goldring, M. B., et al. 1994. J Clin Invest 94:2307-16; Goldring, S. R., et al. 1983. J Bone Joint Surg 65:575-84; Libermann, T. A., et al. 1987. Embo J. 6:1627-1632).
cDNAs were generated from 1 μg of total RNA using Ready-To-Go™ You-prime First-Strand Beads (Amersham Pharmacia Biotech Inc). RT-PCR amplifications of 0.1 μg cDNA were carried out using a MJResearch thermal cycler PTC-100 as follows: 5 min at 94° C., 20-37 cycles of 30 sec at 94° C., 30 sec at 56° C., and 30 sec at 72° C., followed by 5 min at 72° C. (Oettgen, P., et al. 2000, J Biol Chem 275:1216-25). The sequences of the human ESE-1 primers and the primers for human GAPDH were as described (Oettgen, P., et al. 1999, J Biol Chem 274:29439-52).
Macrophages represent an additional cell type present within RA synovial tissues and are a major target of bacterial endotoxin. We, therefore, examined the effects of lipopolysaccharide (LPS) on ESE-1 expression in monocytes using the human monocytic cell line, THP-1 (FIG. 11e).

COX-2 promoter = COX-2 promoter luciferase construct (pXP2/COX-2) in RAW 264.7 cells; assay type: cell-based, human; settings: luciferase 16 h
Experimental: Full-length and dominant-negative mutant ESE-1 cDNAs were inserted into the pCI (Promega) eukaryotic expression vector as described (Oettgen, P., et al. et al. 1997, Mol Cell Biol 17:4419-33). The human COX-2 promoter spanning −170 to +103, kindly provided by Dr. Leslie J. Crofford, University of Michigan, (14) was cloned into the pXP2 luciferase vector (pXP2/COX-2).
(§1) Cotransfections of 3-8×10^5 cells were carried out with 600 ng reporter gene construct DNA and 200 ng expression vector DNA using LipofectAMINE PLUS (Gibco-BRL) for 16 hours as described (Oettgen, P., et al. et al., 1997, Mol Cell Biol 17:4419-33). Transfections were performed independently in duplicate and repeated 3 to 4 times with different plasmid preparations with similar results.
We were interested to know which genes that are associated with inflammatory responses are targeted by ESE-1. We focused on the COX-2 gene, an important target for IL-1β, TNF-α, and LPS in inflammation. Furthermore, the COX-2 promoter contains multiple putative Ets binding sites that are potential targets for ESE-1. A COX-2 promoter luciferase construct, pXP2/COX-2, was transfected into RAW 264.7 cells in the absence or presence of the ESE-1 expression vector, pCI/ESE-1. ESE-1 enhanced COX-2 promoter activity more than 10-fold (FIG. 13a). […]

NOS2 promoter [1] = test: LPS (endotoxin) induction of NOS2 promoter luciferase reporter in RAW cells; assay type: cell-based, murine; settings: response to endotoxin (LPS)
Experimental: (§2) A 1516 and 265 bp fragment corresponding to nucleotides (−1485 to +31) and (−234 to +31) of the murine NOS2 gene promoter were subcloned into the PGL2 luciferase reporter(Promega).
(§3) Co-transfections of 2×10^5 RAW cells or RASMCs were carried out with 0.6 μg reporter gene construct DNA and 0.6 μg expression vector DNA using 6 μl lipofectamine (Gibco-BRL) as described (Oettgen, P., et al. 1996. Characterization of NERF, a novel transcription factor related to the Ets factor ELF-1. Mol Cell Biol 16:5091-106). The cells were harvested 16 hours after transfection and assayed for luciferase activity. Transfections for every construct were performed independently in duplicates and repeated 3 times with two different plasmid preparations with similar results. Cotransfection of a second plasmid for determination of transfection efficiency was omitted because potential artifacts with this technique have been reported and because many commonly used viral promoters contain potential binding sites for ets factors (Farr, A., and A. Roman. 1992. A pitfall of using a second plasmid to determine transfection efficiency. Nucleic Acids Res 20:920).
In the presence of LPS, the ESE-1 DN1 protein blocked induction of the NOS2 promoter by LPS by approximately 70-75%. (See FIG. 21C).

ESE-1 promoter = ESE-1 promoter luciferase construct (pXP2/ESE-1) transfection; assay type: cell-based, human; settings: RAW 264.7 cells; 16 h
Experimental: as §1
To investigate the molecular mechanism by which IL-1 β and LPS regulate ESE-1 expression, we examined the response of an ESE-1 promoter luciferase construct after transfection using two cytokine responsive non-epithelial cell types, U-138 MG human glial cells and RAW 264.7 cells, a murine macrophage cell line (Oettgen, P., et al. 1999, Genomics 55:358-62). Whereas the parental pXP2 vector was not stimulated by IL-1β, in U-138 MG cells, IL-1β increased ESE-1 promoter activity up to 5-fold (FIG. 12a). Similarly, LPS enhanced ESE-1 promoter activity ˜9-fold in RAW 264.7 cells (FIG. 12b).

COL2A1 promoter [2] = test: COL2A1 promoter luciferase cotransfection in T/C-28a2 cells; assay type: cell-based, human; settings: T/C-28a2; pGL3 construct; highest concentrations tested
Experimental: (§4) The COL2A1 sequence spanning −577 to +3428 bp (Goldring M B, et al, J Cell Biochem 1994;54:85-99, 39) was cloned into the pGL2-basic (pGL2B) luciferase reporter gene vector (Promega,) and named pGL2-COL2/4.0. Deletion constructs containing −577/+125 bp, −131/+125 bp, −87/+125 bp were prepared by enzyme digestion of pGL2-COL2/4.0 using PstI, ApaI, and PuuII, followed by ligation. For the deletion constructs −45/+125 bp, −83/+7 bp, and −45/+7 bp, PCR products were generated as described (Osaki et al.) and cloned into the pGL2-Basic luciferase vector. These reporter constructs were used as templates to generate point mutations or internal deletions by PCR mutagenesis employing the oligonucleotides listed in FIG. 16 and the QuikChange™ Site-Directed Mutagenesis Kit (Stratagene, La Jolla, Calif.). DNA fragments containing point mutations were then cloned into the pGL2B vector and confirmed by DNA sequencing using a G2 primer on pGL2 DNA. Deletions were also made in the −577/+127 bp COL2A1 promoter construct using the ExSite™ PCR-Based Site-Directed Mutagenesis Kit (Stratagene).
(§5) Transient transfection experiments were carried out in C-28/I2 cells using LipofectAMINE PLUS™ Reagent (Life Technologies). Cells were seeded in 6-well tissue culture plates at 3.5×10^5 cells/well in DMEM/F12 containing 10% FCS 24 h prior to transfection. For each well, 1 μg of COL2A1-luciferase construct, 6 μl of PLUS reagent and 92 μl of serum-free DMEM/F12 were mixed and incubated for 15 min at room temperature. LipofectAMINE+ reagent (4 μl) in 100 μl of serum-free medium was then added to each reaction mixture and incubation was continued for an additional 30 min at room temperature. Finally, the transfection mixture was combined with 800 μl of serum-free medium and the lipid-nucleic acid complex was transferred to the washed cell monolayer in each well. After incubation for 4 h at 37° C., the transfection mix was diluted with an equal volume of DMEM/F12 containing 2% Nutridoma-SP, and incubation continued for 18 h in the absence or presence of IL-1β. For cotransfections, the cells were incubated for 24 h to permit expression of recombinant proteins prior to treatment with IL-1β for a further 18 h. Cell lysates were prepared by extraction with 200 μl of Reporter Lysis Buffer (Promega) and the protein content was determined using the Coomassie Plus Protein Assay Reagent (PIERCE). Luciferase activities were determined by chemiluminescence assay using the Autolumat LB953 luminometer (EG&G Berthold, Oak Ridge, Tenn.), normalized to the amount of protein. Each data point was calculated as the mean±standard deviation for three independently transfected cultures from one representative of at least three experiments. […]

ICAM-2 promoter = test: Cotransfection of ESE-1 with luciferase reporter constructs of potential target genes; assay type: cell-based; settings: cotransfection of expression plasmid with luciferase reporter
Experimental: as §3
In an attempt to identify target genes for ESE-1, the ability of ESE-1 to transactivate the promoters of several genes that are induced in response to inflammatory stimuli were tested. […] Transactivation of the ICAM-2 promoter by ESE-1 led to a 3.5 fold induction. […] The NOS2 gene promoter has two important regulatory regions, one that is upstream (−1100 to −800) and one that is in the more proximal promoter (−234 to +31). […]

COL2A1 promoter [3] = test: COL2A1 promoter/intron deletion constructs, transient transfection in C-28/I2 cells; assay type: cell-based, human
Experimental: as §4
as §5, with “For cotransfections, the cells were incubated for 24 h to permit expression of recombinant proteins prior to treatment with IL-1β for a further 18 h.” left out
To localize the responses to IL-1β and ESE-1 in the COL2A1 promoter, we made several 5′-deletions of the −577/+127 bp promoter construct, which we had previously determined to be responsive to IL-1β.

NOS2 promoter [4] = test: ESE-1 transactivation of NOS2 promoter luciferase reporter, cotransfection in RAW cells; assay type: cell-based, murine; settings: cotransfection with NOS2 promoter
Experimental: as §2, §3
The ability of ESE-1 DN 1 to block transactivation of the NOS2 promoter was tested in RAW cells. Cotransfection of ESE-1 with the NOS2 promoter led to an approximate 12-fold increase in transactivation. […]

induction of the ICAM-2 promoter (ICAM-2 promoter) [fold] | Substance | ESE-1 expression (ESE-1) | induction of COX-2 promoter activity (COX-2 promoter) | increase in NOS2 promoter activity (NOS2 promoter [1]) [fold] | increase in ESE-1 promoter activity (ESE-1 promoter) [fold] | inhibition of COL2A1/4.0 activity (COL2A1 promoter [2]) [%] | response of -131/+127 and -83/+127 bp constructs (COL2A1 promoter [3]) | inhibition of -577/+127, -530/+127, -403/+127 bp constructs (COL2A1 promoter [3]; 200 ng, highest amount) | increased expression of pGL2P+2370/+2672 and pGL2B-28/+2122 constructs (COL2A1 promoter [3]; overexpression) [fold] | increase in transactivation of the NOS2 promoter (NOS2 promoter [4]) [fold]
– | lipopolysaccharide [LPS] | induced ESE-1 expression | more than 20 fold | ~14 | ~9 | – | – | – | – | –
3.5 | ESE-1: full-length Ets transcription factor ESE-1 overexpressed from the pCI expression vector | – | more than 10 fold | – | – | 20 | did not respond | levels of inhibition similar to IL-1β | ~10 | ~12
